The test relates to Escherichia coli strain ATCC25922. Put plainly: standard microdilution assay to determine minimum inhibitory concentrations (MICs). The following applies: for E. coli ATCC25922 MIC: Escherichia coli strain ATCC25922, microdilution; for MIC: Escherichia coli, ATCC25922, Escherichia coli strain ATCC25922, microdilution, read-out: E. coli ATCC25922 MIC. In kind it is cell-based. Put shortly: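 Broth microdilution MIC against E. coli ATCC25922, following CLSI protocols, typically in a 100 microliter final volume. Results reported as +/− relative to a 16 micrograms/ml cutoff.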
(In general: Dilution methods test growth across graded concentrations, often in twofold steps.)

`N=C(N)NCCCNC(=O)c1ccc(C2N=c3cc(-c4ccc(S(=O)(=O)N(CCCN5CCCCC5)C5CCNCC5)cc4)[nH]c3=NC2=O)cc1` (centres unmarked) [Compound 1017]: the “E. coli ATCC25922 MIC” value is on record as “+ (a “+” indicates that the compound has an MIC value of 16 micrograms/ml or less)”. Same read-out and setting: the result for `N=C(N)NCCCNCc1ccc(-n2cc3cc(-c4cccc(S(=O)(=O)N(CC5CC5)C5CCNCC5)c4)[nH]c3nc2=O)cc1` [Compound 1018] reads “+ (a “+” indicates that the compound has an MIC value of 16 micrograms/ml or less)”; that for `N=C(N)NCCCNCc1ccc(-n2cc3cc(-c4ccc(S(=O)(=O)N(CCCC5CCCCN5)C5CCNCC5)cc4)[nH]c3nc2=O)cc1` (centres unmarked) [Compound 1019], “+ (a “+” indicates that the compound has an MIC value of 16 micrograms/ml or less)”. On to `CNCc1ccc(-n2cc3cc(-c4ccc(S(=O)(=O)N(CCCn5cccn5)C5CCNCC5)cc4)[nH]c3nc2=O)cc1` [Compound 1020], for which the MIC – broadly, the lowest concentration that inhibits growth of the organism – is more than 16 mg/L. Same read-out and setting: the result for `CNCc1ccc(-n2cc3cc(-c4ccc(S(=O)(=O)N(CCCn5ccc(C(F)(F)F)n5)C5CCNCC5)cc4)[nH]c3nc2=O)cc1` [Compound 1021] reads more than 16 mg/L.

Consider `N=C(N)NCCCNCc1ccc(-n2cc3cc(-c4cc(C(=O)NC5CCNCC5)cc(N5CCNCC5)c4)[nH]c3nc2=O)cc1` [Compound 1023], for which the “E. coli ATCC25922 MIC” value was “+ (a “+” indicates that the compound has an MIC value of 16 micrograms/ml or less)”. Same read-out and setting: as for `N=C(N)NCCCNCc1ccc(-n2cc3cc(-c4cccc(S(=O)(=O)N(CCCN5CCCCC5)C5CCNCC5)c4)[nH]c3nc2=O)cc1` [Compound 1027], the entry is “+ (a “+” indicates that the compound has an MIC value of 16 micrograms/ml or less)”; as for `N=C(N)NCCCNCc1ccc(-n2cc3cc(-c4cc(C(=O)NCC5CCCO5)cc(N5CCNCC5)c4)[nH]c3nc2=O)cc1` (centres unmarked) [Compound 1029], “+ (a “+” indicates that the compound has an MIC value of 16 micrograms/ml or less)”. On to `CNCc1ccc(-n2cc3cc(-c4ccc(S(=O)(=O)N(CCCc5cccc(OC)c5)C5CCNCC5)cc4)[nH]c3nc2=O)cc1` [Compound 1034], for which the MIC is more than 16 mg/L. As to `NCc1ccc(-n2cc3cc(-c4ccc(S(=O)(=O)N(CCCn5cccn5)C5CCNCC5)cc4)[nH]c3nc2=O)cc1` [Compound 1035], the MIC is more than 16 mg/L. The same measure, in the same setting: as for `COc1cccc(CCCN(C2CCNCC2)S(=O)(=O)c2ccc(-c3cc4cn(-c5ccc(CN)cc5)c(=O)nc4[nH]3)cc2)c1` [Compound 1036], the figure is more than 16 mg/L; as for `CNCc1ccc(-n2cc3cc(-c4ccc(S(=O)(=O)N(CCCN5CCOCC5)C5CCNCC5)cc4)[nH]c3nc2=O)cc1` [Compound 1037], more than 16 mg/L.

As for `NCc1ccc(-n2cc3cc(-c4ccc(S(=O)(=O)N(CCCN5CCOCC5)C5CCNCC5)cc4)[nH]c3nc2=O)cc1` [Compound 1038], the MIC is more than 16 mg/L. On the same count and under the same terms, as for `CNCc1ccc(-n2cc3cc(-c4ccc(S(=O)(=O)N(CCCN5CCCCC5C)C5CCNCC5)cc4)[nH]c3nc2=O)cc1` (centres unmarked) [Compound 1039], the figure is more than 16 mg/L.

In the case of `N=C(N)NCCCNCc1ccc(-n2cc3cc(-c4cc(CNCC(F)(F)F)cc(N5CCNCC5)c4)[nH]c3nc2=O)cc1` [Compound 1040], the “E. coli ATCC25922 MIC” value is on record as “+ (a “+” indicates that the compound has an MIC value of 16 micrograms/ml or less)”.

Regarding `N=C(N)NCCCNCc1ccc(-n2cc3cc(-c4cc(CNc5cc(F)cc(F)c5)cc(N5CCNCC5)c4)[nH]c3nc2=O)cc1` [Compound 1043], the “E. coli ATCC25922 MIC” value is on record as “+ (a “+” indicates that the compound has an MIC value of 16 micrograms/ml or less)”. On the same count and under the same terms, as for `N=C(N)NCCCNCc1ccc(-n2cc3cc(-c4cc(CNCCc5ccc(F)cc5)cc(N5CCNCC5)c4)[nH]c3nc2=O)cc1` [Compound 1044], the entry is “+ (a “+” indicates that the compound has an MIC value of 16 micrograms/ml or less)”; as for `N=C(N)NCCCNCc1ccc(-n2cc3cc(-c4cc(C(=O)NC5CCC(F)(F)CC5)cc(N5CCNCC5)c4)[nH]c3nc2=O)cc1` [Compound 1045], “+ (a “+” indicates that the compound has an MIC value of 16 micrograms/ml or less)”.

With `N=C(N)NCCCNCc1ccc(-n2cc3cc(-c4cccc(S(=O)(=O)N(CCCC5CCCC5)C5CCNCC5)c4)[nH]c3nc2=O)cc1` [Compound 1047], the “E. coli ATCC25922 MIC” value is recorded as “+ (a “+” indicates that the compound has an MIC value of 16 micrograms/ml or less)”. In the case of `N=C(N)NCCNC(=O)c1ccc(-n2cc3cc(-c4ccc(S(=O)(=O)NC5CCNCC5)cc4)[nH]c3nc2=O)cc1` [Compound 1048], the “E. coli ATCC25922 MIC” value is “+ (a “+” indicates that the compound has an MIC value of 16 micrograms/ml or less)”.

Regarding `CN(Cc1cccc(F)c1)Cc1cc(-c2cc3cn(-c4ccc(CNCCCNC(=N)N)cc4)c(=O)nc3[nH]2)cc(N2CCNCC2)c1` [Compound 1049], the “E. coli ATCC25922 MIC” value is given as “+ (a “+” indicates that the compound has an MIC value of 16 micrograms/ml or less)”. Same read-out and setting: the result for `N=C(N)NCCCNCc1ccc(-n2cc3cc(-c4cc(CN5Cc6ccccc6C5)cc(N5CCNCC5)c4)[nH]c3nc2=O)cc1` [Compound 1050] reads “+ (a “+” indicates that the compound has an MIC value of 16 micrograms/ml or less)”.

For the molecule `CC1CCCCN1CCCN(C1CCNCC1)S(=O)(=O)c1ccc(-c2cc3cn(-c4ccc(CN)cc4)c(=O)nc3[nH]2)cc1` (centres unmarked) [Compound 1051], the MIC was more than 16 mg/L. Same read-out and setting: the result for `CNCc1ccc(-n2cc3cc(-c4ccc(S(=O)(=O)N(CCCC5CCCO5)C5CCNCC5)cc4)[nH]c3nc2=O)cc1` (centres unmarked) [Compound 1052] reads more than 16 mg/L; that for `NCc1ccc(-n2cc3cc(-c4ccc(S(=O)(=O)N(CCCc5ccc(F)cc5)C5CCNCC5)cc4)[nH]c3nc2=O)cc1` [Compound 1053], more than 16 mg/L.

For the molecule `CNCc1ccc(-n2cc3cc(-c4ccc(S(=O)(=O)N(CCCN5Cc6ccccc6C5)C5CCNCC5)cc4)[nH]c3nc2=O)cc1` [Compound 1054], the MIC was more than 16 mg/L. As for `N=C(N)NCCCNCCCn1cc2cc(-c3ccc(S(=O)(=O)NC4CCNCC4)cc3)[nH]c2nc1=O` [Compound 1059], the “E. coli ATCC25922 MIC” value was “+ (a “+” indicates that the compound has an MIC value of 16 micrograms/ml or less)”. In the case of `N=C(N)NCCCNCc1ccc(-n2cc3cc(-c4cc(CNc5ccc(F)cc5)cc(N5CCNCC5)c4)[nH]c3nc2=O)cc1` [Compound 1060], the “E. coli ATCC25922 MIC” value was “+ (a “+” indicates that the compound has an MIC value of 16 micrograms/ml or less)”. On the same count and under the same terms, the result for `N=C(N)NCCCNCc1ccc(-n2cc3cc(-c4cc(C(=O)Nc5nc(C(F)(F)F)cs5)cc(N5CCNCC5)c4)[nH]c3nc2=O)cc1` [Compound 1061] reads “+ (a “+” indicates that the compound has an MIC value of 16 micrograms/ml or less)”. The same measure, in the same setting: the result for `CNCc1ccc(-n2cc3cc(-c4ccc(S(=O)(=O)N(CCCc5ccc(F)cc5)C5CCNCC5)cc4)[nH]c3nc2=O)cc1` [Compound 1062] reads “− (a “−” indicates that the compound has an MIC value greater than 16 micrograms/ml)”; that for `CNCc1ccc(-n2cc3cc(-c4ccc(S(=O)(=O)N(CCCN5CCc6ccccc65)C5CCNCC5)cc4)[nH]c3nc2=O)cc1` [Compound 1063], “− (a “−” indicates that the compound has an MIC value greater than 16 micrograms/ml)”; that for `CNCc1ccc(-n2cc3cc(-c4ccc(S(=O)(=O)N(CCCc5ccc(O)cc5)C5CCNCC5)cc4)[nH]c3nc2=O)cc1` [Compound 1064], “− (a “−” indicates that the compound has an MIC value greater than 16 micrograms/ml)”.

In the case of `NCc1ccc(-n2cc3cc(-c4ccc(S(=O)(=O)N(CCCN5Cc6ccccc6C5)C5CCNCC5)cc4)[nH]c3nc2=O)cc1` [Compound 1065], the MIC is more than 16 mg/L. Still for that read-out and setting: as for `NCc1ccc(-n2cc3cc(-c4ccc(S(=O)(=O)N(CCCC5CCCO5)C5CCNCC5)cc4)[nH]c3nc2=O)cc1` (centres unmarked) [Compound 1066], the figure is more than 16 mg/L; as for `NCc1ccc(-n2cc3cc(-c4ccc(S(=O)(=O)N(CCCN5CCc6ccccc65)C5CCNCC5)cc4)[nH]c3nc2=O)cc1` [Compound 1067], more than 16 mg/L. `N=C(N)NCCCNCc1ccc(-n2cc3cc(-c4cc(C(=O)NCCc5cccc(F)c5)cc(N5CCNCC5)c4)[nH]c3nc2=O)cc1` [Compound 1068]: the “E. coli ATCC25922 MIC” value was “+ (a “+” indicates that the compound has an MIC value of 16 micrograms/ml or less)”. The same measure, in the same setting: the result for `N=C(N)NCCCNCc1ccc(-n2cc3cc(-c4cc(C(=O)Nc5cccc(C(F)(F)F)c5)cc(N5CCNCC5)c4)[nH]c3nc2=O)cc1` [Compound 1069] reads “+ (a “+” indicates that the compound has an MIC value of 16 micrograms/ml or less)”.

As for `N=C(N)NCCCNCc1ccc(-n2cc3cc(-c4cc(C(=O)N5CCC(F)(F)CC5)cc(N5CCNCC5)c4)[nH]c3nc2=O)cc1` [Compound 1074], the “E. coli ATCC25922 MIC” value is listed as “+ (a “+” indicates that the compound has an MIC value of 16 micrograms/ml or less)”. For the molecule `N=C(N)NCCC(=O)NCc1ccc(-n2cc3cc(-c4ccc(S(=O)(=O)NC5CCNCC5)cc4)[nH]c3nc2=O)cc1` [Compound 1075], the “E. coli ATCC25922 MIC” value is “+ (a “+” indicates that the compound has an MIC value of 16 micrograms/ml or less)”. For the molecule `N=C(N)NCCCNCc1ccc(-n2cc3cc(-c4cccc(S(=O)(=O)N(Cc5ccc6nonc6c5)C5CCNCC5)c4)[nH]c3nc2=O)cc1` [Compound 1076], the “E. coli ATCC25922 MIC” value is “+ (a “+” indicates that the compound has an MIC value of 16 micrograms/ml or less)”. Still for that read-out and setting: as for `N=C(N)NCCCNCc1ccc(-n2cc3cc(-c4cccc(S(=O)(=O)N(CCN5CCCCC5)C5CCNCC5)c4)[nH]c3nc2=O)cc1` [Compound 1077], the entry is “+ (a “+” indicates that the compound has an MIC value of 16 micrograms/ml or less)”.

In the case of `CNCc1ccc(-n2cc3cc(-c4ccc(S(=O)(=O)N(CCCN5CCCC(O)C5)C5CCNCC5)cc4)[nH]c3nc2=O)cc1` (centres unmarked) [Compound 1079], the MIC was more than 16 mg/L. The same measure, in the same setting: the result for `NC(=O)c1ccc(-n2cc3cc(-c4ccc(S(=O)(=O)N(CCOc5ccc(F)cc5)C5CCNCC5)cc4)[nH]c3nc2=O)cc1` [Compound 1080] reads more than 16 mg/L.

With `NCc1ccc(-n2cc3cc(-c4ccc(S(=O)(=O)N(CCCc5ccc(O)cc5)C5CCNCC5)cc4)[nH]c3nc2=O)cc1` [Compound 1081], the MIC is more than 16 mg/L.

The values above are taken from patent US9193731B2, “Antimicrobial compounds and methods of making and using the same” (Melinta Therapeutics, Inc., priority 2009, dated 2015).
